Here are results for three molecules from patent publication US8865894B2, “Oxazolidin-2-one compounds and uses thereof” (Novartis AG, priority 2012, dated 2014).

For this test, the target named is T1, human PI3Kβ (Homo sapiens, UniProt P42338).
T1 construct: made in house
Description: Biochemical PI3Kbeta (KinaseGlo luminescent kinase assay). As to conditions: 1 μM ATP, mean of n measurements, read-out: PI3Kb/ IC50. How it is done:
Test compounds were dissolved in DMSO (10 mM) and transferred into 1.4 mL flat bottom or V-shaped Matrix tubes carrying a unique 2D matrix chip by individual Novartis compound hubs. The numbers of these chips were distinctively linked to Novartis Pharma Numbers. The stock solutions were stored at −20° C. if not used immediately. For the test procedure the vials were defrosted and identified by a scanner whereby a working sheet was generated that guided the subsequent working steps.
Compounds were either manually diluted in DMSO for individual experiments (96 wells enabling 10 cpds at 8 (single points) concentrations) as described in or prepared as described below if tested for profiling in 384-wells. This format enabled the assay of maximally 40 individual test compounds at 8 concentrations (single points) including 4 reference compounds. The dilution protocol included the production of “pre-dilution plates”, “master plates” and “assay plates”.
96 polypropylene well plates were used as pre-dilution plates. A total of 4 pre-dilution plates were prepared including 10 test compounds each on the plate positions A1-A10, one standard compound at A11 and one DMSO control at A12. Programs have been written to run these pipetting steps on the HamiltonSTAR robots.
Identical “assay plates” were then prepared by pipetting 50 nL each of compound dilutions of the “master plates” into 384-well “assay plates”. The compounds were mixed with 4.5 μL of assays components plus 4.5 μL enzyme corresponding to a 1:181 dilution enabling the final concentration of 10, 3.0, 1.0, 0.3, 0.1, 0.03, 0.01 and 0.003 μM, respectively. The preparation of the “master plates” was handled by the Matrix PlateMate Plus robot and replication of “assay plates” by the HummingBird robot.
Catalytically active human PI3Kα, PI3Kβ, PI3Kδ, and mTOR were cloned, expressed and purified as described (Maira S M, Stauffer F, Brueggen J, Furet P, Schnell C, Fritsch C, Brachmann S, Chène P, de Pover A, Schoemaker K, Fabbro D, Gabriel D, Simonen M, Murphy L, Finan P, Sellers W, García-Echeverría C (2008), Mol Cancer Ther. 7:1851-63 and Maira S M, Pecchi S, Brueggen J, Huh K, Schnell C, Fritsch C, Nagel T, Wiesmann M, Brachmann S, Dorsch M, Chène P, Schoemaker K, De Pover A, Menezes D, Fabbro D, Sellers W, García-Echeverría C, Voliva C F (2011), Mol. Cancer Ther. accepted).
The luminescence-based ATP detection reagent KinaseGlo was obtained from Promega, (Cat. No. V6714, Lot No. 236161) through Catalys, Wallisellen, Switzerland. (L-alpha-phosphatidylinositol (PI), Liver, Bovine) were obtained from Avanti Polar Lipid (Cat. No. 840042C, Lot#LPI-274), Phosphatidylinositol-4,5-bisphosphate (PIP(4,5)2 (Avanti, Cat. No. 840046×) or L-α-phosphatidylinositol (PI) was obtained from Avanti Polar Lipid (Cat. No. 840042C, Lot#LPI-274). L-α-Phosphatidylserine (PS) was from Avanti Polar Lipid (Cat. No. 840032C), n-OctylGlucoside Avanti Polar Lipid (Cat. No. 10634425001). Luminescence is a well established readout to determine ATP concentrations and can thus be used to follow the activity of many kinases regardless of their substrate. The Kinase Glo Luminescent Kinase Assay (Promega, Madison/Wis., USA) is a homogeneous HTS method of measuring kinase activity by quantifying the amount of ATP remaining in solution following a kinase reaction.
50 nL of compound dilutions were dispensed onto black 384-well low volume Non Binding Styrene (NBS) plates (Costar Cat. No. NBS#3676) as described in section 8.2. L-α-phosphatidylinositol (PI), provided as 10 mg/ml solution in methanol, was transferred into a glass tube and dried under nitrogen beam. It was then resuspended in 3% OctylGlucoside by vortexing and stored at 4° C. 5 μL of a mix of PI/OG with the PI3Ka and Pi3Kb subtypes were added. Kinase reactions were started by addition of 5 μl of ATP-mix containing in a final volume 10 μL 10 mM TRIS-HCl pH 7.5, 3 mM MgCl2, 50 mM NaCl, 0.05% CHAPS, 1 mM DTT and 1 μM ATP, and occurred at room temperature.
On the technique in general: In Kinase-Glo more light means more ATP remaining.

T1 sequence (P42338 2-1070 limits assumed): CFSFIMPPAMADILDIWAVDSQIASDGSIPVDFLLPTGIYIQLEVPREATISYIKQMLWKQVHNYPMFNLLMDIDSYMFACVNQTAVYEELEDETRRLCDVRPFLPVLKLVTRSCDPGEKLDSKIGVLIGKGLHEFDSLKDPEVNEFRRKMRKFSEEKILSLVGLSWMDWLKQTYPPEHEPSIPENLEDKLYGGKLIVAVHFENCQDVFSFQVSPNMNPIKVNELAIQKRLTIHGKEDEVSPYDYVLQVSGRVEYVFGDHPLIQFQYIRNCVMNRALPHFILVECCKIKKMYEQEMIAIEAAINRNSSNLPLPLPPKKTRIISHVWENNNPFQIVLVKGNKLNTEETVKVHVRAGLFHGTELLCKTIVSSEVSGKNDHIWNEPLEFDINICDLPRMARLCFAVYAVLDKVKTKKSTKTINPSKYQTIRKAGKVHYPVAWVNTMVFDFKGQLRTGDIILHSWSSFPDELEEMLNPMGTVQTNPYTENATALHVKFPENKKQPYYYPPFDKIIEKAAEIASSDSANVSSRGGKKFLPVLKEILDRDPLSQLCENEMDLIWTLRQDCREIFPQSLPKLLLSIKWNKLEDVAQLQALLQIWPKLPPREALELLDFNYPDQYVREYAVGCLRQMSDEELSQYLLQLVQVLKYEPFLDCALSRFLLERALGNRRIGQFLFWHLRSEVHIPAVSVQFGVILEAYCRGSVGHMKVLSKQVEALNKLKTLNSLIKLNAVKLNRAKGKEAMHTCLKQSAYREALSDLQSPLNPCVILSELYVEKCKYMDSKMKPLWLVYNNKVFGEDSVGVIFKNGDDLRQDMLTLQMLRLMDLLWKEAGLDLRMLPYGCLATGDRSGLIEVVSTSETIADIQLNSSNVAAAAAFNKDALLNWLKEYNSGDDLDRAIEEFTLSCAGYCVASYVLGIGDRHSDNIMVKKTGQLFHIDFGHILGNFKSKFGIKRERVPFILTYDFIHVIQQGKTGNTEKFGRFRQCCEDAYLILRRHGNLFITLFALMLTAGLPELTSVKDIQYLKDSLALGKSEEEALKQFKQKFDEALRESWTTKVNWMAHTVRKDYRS

On to `Nc1ncc(-c2cc(N3C[C@H](CO)OC3=O)nc(N3CCOCC3)n2)c(C(F)(F)F)n1` [Example 20, (R)-3-(2′-Amino-2-morpholin-4-yl-4′-trifluoromethyl-[4,5′]bipyrimidinyl-6-yl)-5-hydroxymethyl-oxazolidin-2-one], for which the IC50 worked out at 11 nM.
With `Nc1ncc(-c2cc(N3C(=O)O[C@H]4COC[C@H]43)nc(N3CCOCC3)n2)c(C(F)(F)F)n1` [Example 21, (3aR,6aR)-3-(2′-amino-2-morpholino-4′-(trifluoromethyl)-[4,5′-bipyrimidin]-6-yl)-tetrahydrofuro[3,4-d]oxazol-2(3H)-one], the IC50 was determined as 35 nM.
Take `C[C@H]1[C@@H](CCO)OC(=O)N1c1cc(-c2cnc(N)nc2C(F)(F)F)nc(N2CCOCC2)n1` [Example 23, (4S,5R)-3-(2′-Amino-2-morpholino-4′-(trifluoromethyl)-[4,5′-bipyrimidin]-6-yl)-5-(2-hydroxyethyl)-4-methyloxazolidin-2-one]: the IC50 was determined as 11 nM.
